Source: patent US10246448B2, “4-hydroxy-2-phenyl-1,3-thiazol-5-yl methanone derivatives as TRPM8 antagonists” (DOMPÉ FARMACEUTICI S.P.A., priority 2015, dated 2019)

What was measured:
[1] = Metabolic stability in rat microsomes, Phase I assay; type: in vitro ADME; details: for intrinsic clearance half-life (in words): metabolic stability in rat microsomes; for half-life at 1 μM: pH 7.4, rat liver microsomes 0.5 mg/ml, compound 1 μM, NADP cofactors mixture, 37° C., read-out: Metabolic Stability (t1/2, min) Phase1
Method: Compounds 1, 2, 8 and 9 in duplicate were dissolved in DMSO and pre-incubated, at the final concentration of 1 μM, for 10 min at 37° C. in potassium phosphate buffer 50 mM pH 7.4, 3 mM MgCl2, with rat liver microsomes (Xenotech) at the final concentration of 0.5 mg/ml.
After the pre-incubation period, reactions were started by adding the cofactors mixture (NADP, Glc6P, Glc6P-DH in 2% Sodium bicarbonte); samples (50 μl) were taken at time 0, 10, 20, 30 and 60 min added to 150 μl of acetonitrile with Verapamil 0.02 μM as Internal Standard (IS) to stop the reaction. After centrifugation the supernatants were analysed by LC-MS/MS.
A control sample without cofactors was added in order to check the stability of test compounds in the matrix after 60 min. 7-Ethoxycoumarin and propranolol were added as reference standards.

[2] = Metabolic stability in rat microsomes, Phase II assay; type: in vitro ADME; details: pH 7.4; rat liver microsomes 0.5 mg/mL, Alamethicin activated, UDPGA, compound 1 μM, 37° C.; read-out: Metabolic Stability (t1/2, min) Phase2
Method: Rat liver microsomes (0.5 mg/mL final conc.) were incubated in ice for 15 min in 50 mM potassium phosphate buffer pH 7.4, 3 mM MgCl2 and activated with Alamethicin 50 μg/mg microsomal protein. Samples were transferred at 37° C. and compounds 1, 2, 8 and 9, dissolved in DMSO, were added in duplicate at the final concentration of 1 μM. After 5 min, reaction is started by adding 25 μl of UDPGA (16.15 mg/ml in 0.2% Sodium Bicarbonate). Samples were taken at time 0, 10, 20, 30 and 60 min added to 150 μl of acetonitrile with Verapamil 0.02 uM as Internal Standard (IS) to stop the reaction. After centrifugation the supernatants were analysed by LC-MS/MS. 7-Hydroxycoumarin was added as reference standard.

human TRPM8 [3] = target: T1, human TRPM8 (Homo sapiens, UniProt Q7Z2W7); assay: In vitro cold stimulation assay
Method: The TRPM8 antagonisticic activity of all 26 compounds was determined in an in vitro cold stimulation assay.
3-4 days after seeding (˜80% confluent cells), the medium was removed and cells were loaded by a solution of Screen Quest™ Fluo-8 NW dye (ABS Bioquest, Sunnyvale, Calif., USA) in the dark. Dye-loaded cell flasks were incubated for 45 minutes at room temperature in the dark and the Fluo-8 NW solution was then removed and cells were seeded in the 96 Assay Plates (MicroAmp™ Optical 96-Well Reaction Plates; Applied Biosystems, Life technologies) at 100,000 cells/'well (20 μl/well). […] All data point determinations were performed in duplicate before a mean value was calculated, including error bars representing the standard error of the mean.

human TRPM8 [4] = target: T1, human TRPM8; assay: In vitro TRPM8 assay: intracellular calcium levels, Ca2+ sensitive fluorescent dye (FLIPR), agonist Icilin or Cooling Agent 10; type: cell-based; set-up: expressed in transfected cells; details: HEK-293 cells stably expressing human TRPM8
Method: The TRPM8 antagonistic activity of all 26 compounds was determined by measuring changes in intracellular calcium levels using a Ca^+2 sensitive fluorescent dye. The experiments were performed using HEK-293 cells stably expressing the human TRPM8. Cells were seeded 10000 cells/well in 384 plates coated by Poly-D-Lysine MATRIX black/clear bottom (Thermo Scientific, Waltham, Mass. USA) in complete medium and grown overnight at 37° C., 5% CO2. 24 h after seeding, cell culture media was removed, cells were washed with Tyrode's assay buffer and then loaded with the fluorescent Ca^+2 indicator Fluo-4 NW dye (Molecular Probes, Life Technologies, Paisley, UK) supplemented with water-soluble Probenecid (Molecular Probes). Dye loaded cell plates were incubated for 1 h at room temperature. The compounds or vehicle were added and the kinetic response was monitored by a fluorimetric imaging plate ([…]; Molecular Devices, Sunnyvale, Calif., USA) over a period of five minutes (300 seconds). A second injection 5 minutes later of the reference agonist Cooling Agent 10 or Icilin at EC80 concentration was performed. The signal of the emitted fluorescence was recorded during additional three minutes. Data were analyzed by Spotfire DecisionSite version 9.1.1. The bioactivity exerted by the compounds or vehicle was expressed as a percent inhibition and IC50 values were then calculated.

[5] = agonist Cooling Agent 10 at EC80, read-out: Ca2+ (IC50 μM) Cool 10
[6] = agonist Icilin at EC80, read-out: Ca2+ (IC50 μM) Icilin

T1 sequence (Q7Z2W7 whole entry): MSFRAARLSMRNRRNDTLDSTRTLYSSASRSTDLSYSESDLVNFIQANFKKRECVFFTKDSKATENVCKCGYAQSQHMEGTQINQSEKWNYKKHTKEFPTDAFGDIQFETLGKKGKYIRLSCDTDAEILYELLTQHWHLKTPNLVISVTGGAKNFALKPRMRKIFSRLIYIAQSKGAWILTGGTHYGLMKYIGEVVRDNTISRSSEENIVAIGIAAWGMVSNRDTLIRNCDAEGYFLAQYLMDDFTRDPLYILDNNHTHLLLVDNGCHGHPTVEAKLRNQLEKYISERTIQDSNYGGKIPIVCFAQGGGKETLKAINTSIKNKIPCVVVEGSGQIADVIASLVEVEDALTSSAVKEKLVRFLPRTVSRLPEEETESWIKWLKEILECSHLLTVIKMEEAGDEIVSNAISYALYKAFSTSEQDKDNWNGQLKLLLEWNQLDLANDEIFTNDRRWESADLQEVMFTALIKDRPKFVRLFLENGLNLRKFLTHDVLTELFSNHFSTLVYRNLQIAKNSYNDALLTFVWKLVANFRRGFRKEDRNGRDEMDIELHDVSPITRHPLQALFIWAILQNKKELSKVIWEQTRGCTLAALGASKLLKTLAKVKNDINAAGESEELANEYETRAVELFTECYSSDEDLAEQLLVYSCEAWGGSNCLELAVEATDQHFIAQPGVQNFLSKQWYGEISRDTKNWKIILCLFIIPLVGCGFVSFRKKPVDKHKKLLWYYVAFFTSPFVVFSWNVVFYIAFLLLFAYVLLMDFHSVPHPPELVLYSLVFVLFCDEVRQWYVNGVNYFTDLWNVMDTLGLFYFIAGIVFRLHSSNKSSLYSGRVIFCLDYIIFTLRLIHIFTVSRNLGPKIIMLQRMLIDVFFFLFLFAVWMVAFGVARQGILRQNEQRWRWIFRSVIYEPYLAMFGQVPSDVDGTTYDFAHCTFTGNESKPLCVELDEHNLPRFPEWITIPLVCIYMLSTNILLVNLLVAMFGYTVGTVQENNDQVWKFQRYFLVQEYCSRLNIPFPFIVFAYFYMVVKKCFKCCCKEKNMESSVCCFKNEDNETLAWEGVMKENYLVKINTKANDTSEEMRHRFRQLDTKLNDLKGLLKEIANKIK

intrinsic clearance half-life (in words) [1] | half-life at 1 μM [1] | half-life at 1 μM [2] | IC50 (human TRPM8 [3]) | IC50 (human TRPM8 [4]; [5]) | IC50 (human TRPM8 [4]; [6]) | SMILES
highest intrinsic clearance half-life | 185 min | 120 min |  |  |  | O=C(c1sc(-c2cccc(F)c2)nc1O)N1CCCO1 [Example 1, [2-(3-fluorophenyl)-4-hydroxy-1,3-thiazol-5-yl](1,2-oxazolidin-2-yl)methanone]
highest intrinsic clearance half-life | 97 min | 86 min | 5.5 nM | 0.011 µM | 0.012 µM | O=C(c1sc(-c2ccccc2O)nc1O)N1CCCO1 [Example 2, [4-hydroxy-2-(2-hydroxyphenyl)-1,3-thiazol-5-yl](1,2-oxazolidin-2-yl)methanone]
 | 78 min | 55 min |  |  |  | O=C(c1sc(-c2cccc(F)c2)nc1O)N1CCOC1 [Example 3, [2-(3-fluorophenyl)-4-hydroxy-1,3-thiazol-5-yl](1,3-oxazolidin-3-yl)methanone]
 | 64 min | 41 min | 39 nM | 0.104 µM | 0.122 µM | O=C(c1sc(-c2ccccc2O)nc1O)N1CCOC1 [Example 4, [4-hydroxy-2-(2-hydroxyphenyl)-1,3-thiazol-5-yl](1,3-oxazolidin-3-yl)methanone]
 | 52 min | 45 min | 124 nM | 0.326 µM | 0.362 µM | O=C(c1sc(-c2cccc(F)c2)nc1O)C1CCCO1 (centres unmarked) [Example 5, [2-(3-fluorophenyl)-4-hydroxy-1,3-thiazol-5-yl](oxolan-2-yl)methanone]
 | 56 min | 33 min | 230 nM | 0.401 µM | 0.452 µM | O=C(c1sc(-c2ccccc2O)nc1O)C1CCCO1 (centres unmarked) [Example 6, [4-hydroxy-2-(2-hydroxyphenyl)-1,3-thiazol-5-yl](oxolan-2-yl)methanone]
 | 46 min | 51 min | 1230 nM | 1.36 µM | 1.56 µM | O=C(c1sc(-c2cccc(F)c2)nc1O)N1CCCC1 [Example 7, [2-(3-fluorophenyl)-4-hydroxy-1,3-thiazol-5-yl](pyrrolidin-1-yl)methanone]
highest intrinsic clearance half-life | 102 min | 43 min |  |  |  | O=C(c1sc(-c2ccccc2O)nc1O)N1CCCCO1 [Example 8, [4-hydroxy-2-(2-hydroxyphenyl)-1,3-thiazol-5-yl](1,2-oxazinan-2-yl)methanone]
highest intrinsic clearance half-life | 98 min | 51 min | 8 nM | 0.167 µM | 0.123 µM | O=C(c1sc(-c2cccc(F)c2)nc1O)N1CCCCO1 [Example 9, [2-(3-fluorophenyl)-4-hydroxy-1,3-thiazol-5-yl](1,2-oxazinan-2-yl)methanone]
 | 55 min | 46 min | 102 nM | 0.256 µM | 0.231 µM | O=C(c1sc(-c2cccc(F)c2)nc1O)N1CCCOC1 [Example 10, [2-(3-fluorophenyl)-4-hydroxy-1,3-thiazol-5-yl](1,3-oxazinan-3-yl)methanone]
 | 51 min | 50 min | 106 nM | 0.281 µM | 0.256 µM | O=C(c1sc(-c2ccccc2O)nc1O)N1CCCOC1 [Example 11, [4-hydroxy-2-(2-hydroxyphenyl)-1,3-thiazol-5-yl](1,3-oxazinan-3-yl)methanone]
 | 54 min | 32 min | 853 nM | 0.963 µM | 1.21 µM | O=C(c1sc(-c2cccc(F)c2)nc1O)N1CCOCC1 [Example 12, [2-(3-fluorophenyl)-4-hydroxy-1,3-thiazol-5-yl](morpholin-4-yl)methanone]
 | 78 min | 36 min | 752 nM | 1.12 µM | 1.22 µM | O=C(c1sc(-c2ccccc2O)nc1O)N1CCOCC1 [Example 13, [4-hydroxy-2-(2-hydroxyphenyl)-1,3-thiazol-5-yl](morpholin-4-yl)methanone]
 | 67 min | 65 min | 985 nM | 1.51 µM | 1.47 µM | O=C(c1sc(-c2cccc(F)c2)nc1O)N1CCCCC1 [Example 14, [2-(3-fluorophenyl)-4-hydroxy-1,3-thiazol-5-yl](piperidin-1-yl)methanone]
 | 90 min | 82 min | 124 nM | 0.482 µM | 0.564 µM | O=C(c1ccc[nH]1)c1sc(-c2cccc(F)c2)nc1O [Example 17, [2-(3-fluorophenyl)-4-hydroxy-1,3-thiazol-5-yl](1H-pyrrol-2-yl)methanone]
 | 78 min | 55 min | 1450 nM | 1.08 µM | 1.09 µM | Cn1cccc1C(=O)c1sc(-c2cccc(F)c2)nc1O [Example 18, [2-(3-fluorophenyl)-4-hydroxy-1,3-thiazol-5-yl](1-methyl-1H-pyrrol-2-yl)methanone]
 | 42 min | 21 min | 1780 nM | 1.17 µM | 1.15 µM | O=C(c1ccco1)c1sc(-c2cccc(F)c2)nc1O [Example 19, [2-(3-fluorophenyl)-4-hydroxy-1,3-thiazol-5-yl](furan-2-yl)methanone]
 | 68 min | 59 min | 1380 nM | 0.96 µM | 1.11 µM | O=C(c1cccs1)c1sc(-c2cccc(F)c2)nc1O [Example 20, [2-(3-fluorophenyl)-4-hydroxy-1,3-thiazol-5-yl](thiophen-2-yl)methanone]
 | 32 min | 35 min | 657 nM | 0.651 µM | 0.745 µM | O=C(c1sc(-c2cccc(F)c2)nc1O)n1cccc1 [Example 21, [2-(3-fluorophenyl)-4-hydroxy-1,3-thiazol-5-yl](1H-pyrrol-1-yl)methanone]
 | 52 min | 55 min | 478 nM | 0.523 µM | 0.54 µM | O=C(c1ccccn1)c1sc(-c2cccc(F)c2)nc1O [Example 22, [2-(3-fluorophenyl)-4-hydroxy-1,3-thiazol-5-yl](pyridin-2-yl)methanone]
 | 52 min | 51 min | 578 nM | 0.621 µM | 0.695 µM | O=C(c1cccnc1)c1sc(-c2cccc(F)c2)nc1O [Example 23, [2-(3-fluorophenyl)-4-hydroxy-1,3-thiazol-5-yl](pyridin-3-yl)methanone]

SMILES | intrinsic clearance half-life (in words) [1] | half-life at 1 μM [1] | half-life at 1 μM [2] | IC50 (human TRPM8 [3]) | IC50 (human TRPM8 [4]; [5]) | IC50 (human TRPM8 [4]; [6])
O=C(c1sc(-c2cccc(F)c2)nc1O)C1CCCN1 (centres unmarked) [Example 15, [2-(3-fluorophenyl)-4-hydroxy-1,3-thiazol-5-yl](pyrrolidin-2-yl)methanone] |  | 65 min | 54 min | 1310 nM | 1.56 µM | 1.23 µM
CN1CCCC1C(=O)c1sc(-c2cccc(F)c2)nc1O (centres unmarked) [Example 16, [2-(3-fluorophenyl)-4-hydroxy-1,3-thiazol-5-yl](1-methylpyrrolidin-2-yl)methanone] |  | 32 min | 34 min | 1010 nM | 1.34 µM | 1.36 µM
